Values of other authors in patent publication CN101647784A, “卡马西平缓释片及其制备方法” (Beijing Kexin Bicheng Medicine Technology Development Co Ltd, priority 2008, dated 2010).

Details: early epilepsy and single seizures; 406 subjects, immediate versus deferred treatment

NC(=O)N1c2ccccc2C=Cc2ccccc21 [卡马西平]
显著影响: effect on time to 1-year remission | effect on time to 2-year remission | effect on time to first seizure
